Source: patent US6518423B1, “Benzopiperidine derivatives” (Eisai Co., Ltd., priority 1996, dated 2003)
Counter-ions that a name gives are not always drawn.

Structure (SMILES)	melting point
CCOC(=O)CCCCCSc1ncnc2c1ncn2Cc1ccc2c(c1)Nc1nccnc1S2	78 to 79 °C
CN(C)c1ncnc2c1ncn2Cc1ccc2c(c1)Nc1nccnc1S2	229 to 233 °C
N#CN=C(Cc1ccc2c(c1)Nc1nccnc1S2)NCCCn1ccnc1	205 to 208 °C
CC1(CC(=O)O)CC2(CCN(Cc3ccc4c(c3)Nc3nccnc3S4)CC2)C1	149 to 151 °C
COC(=O)c1ccc(-c2cn(Cc3ccc4c(c3)Nc3nccnc3S4)cn2)cc1 (as salt: trifluoroacetate)	161 to 162 °C
N#Cc1ccc2c(c1)Nc1nccnc1S2	263 to 264 °C
CC(C)c1nccn1Cc1ccc2c(c1)Nc1nccnc1S2	241 to 242 °C
OCCN1c2ccccc2Nc2nccnc21	197 to 204 °C
CC(CCC1CCN(Cc2ccc3c(c2)Nc2ncccc2S3)CC1)C(=O)O (stereo not shown)	113 to 115 °C
O=C(O)C1(c2ccc(O)cc2)CCN(Cc2ccc3c(c2)Nc2nccnc2S3)CC1	260 to 262 °C
CC(C)(CC(=O)O)C1CCN(Cc2ccc3c(c2)Nc2nccnc2S3)CC1	272 to 275 °C
OCc1ccc2c(c1)Nc1nccnc1S2	187 to 189 °C
CS(=O)(=O)NC1CN=C(Cc2ccc3c(c2)Nc2nccnc2S3)NC1.Cl (stereo not shown)	275 to 277 °C
Nc1nccn1Cc1ccc2c(c1)Nc1nccnc1S2	286 to 287 °C
CC(C)(CC(=O)O)CC1CCN(Cc2ccc3c(c2)Nc2nccnc2S3)CC1	230 to 232 °C
Cc1cc(NCc2ccc3c(c2)Nc2nccnc2S3)cc(C)n1	230 to 235 °C
ClCc1ccc2c(c1)Nc1nccnc1S2	161 to 162 °C
CS(=O)(=O)/N=C(\N)C1CCN(Cc2ccc3c(c2)Nc2nccnc2S3)CC1	204 to 209 °C
CS(=O)(=O)N1CCN(Cc2ccc3c(c2)Nc2nccnc2S3)CC1	221 to 222 °C
O=C(O)CC1CC2CN(Cc3ccc4c(c3)Nc3nccnc3S4)CC2C1 (stereo not shown) [714]	110 to 115 °C
OCC(O)C1CCN(Cc2ccc3c(c2)Nc2nccnc2S3)CC1 (stereo not shown)	182 to 185 °C
O=C(O)/C=C1\CCCN(Cc2ccc3c(c2)Nc2nccnc2S3)C1	200 to 203 °C
CS(=O)(=O)Nc1ccc(-c2cn(Cc3ccc4c(c3)Nc3nccnc3S4)cn2)cc1	253 to 255 °C
OCc1cc(NCc2ccc3c(c2)Nc2nccnc2S3)ccn1	156 to 160 °C
c1ccc(NCc2ccc3c(c2)Nc2nccnc2S3)cc1	183 to 186 °C

Structure (SMILES)	melting point
CCOC(=O)c1ccc2c(c1)Nc1nccnc1N2	> 275 °C
O=C(O)CC1CCN(Cc2ccc3c(c2)Nc2nccnc2S3)CC1	142 to 146 °C
CN(Cc1ccc(C(=O)O)cc1)Cc1ccc2c(c1)Nc1nccnc1S2	241 to 244 °C
O=C(O)CC1C2CN(Cc3ccc4c(c3)Nc3nccnc3S4)CC1C21CCC1 (stereo not shown) [Example 86]	90 to 92 °C
CN1CCN(Cc2ccc3c(c2)Nc2nccnc2S3)CC1	191 to 192 °C
NCCN1CCN(c2ncnc3c2ncn3Cc2ccc3c(c2)Nc2nccnc2S3)CC1	226 to 229 °C
CC(C(=O)O)c1ccc(NCc2ccc3c(c2)Nc2nccnc2S3)cc1.Cl (stereo not shown)	228 to 233 °C
O=C(O)C=C1C2CCCC1CN(Cc1ccc3c(c1)Nc1nccnc1S3)C2	253 to 255 °C
O=C(O)COc1ccc(C2CCN(Cc3ccc4c(c3)Nc3nccnc3S4)CC2)cc1	258 to 262 °C
O=C(O)CN1c2ccccc2Nc2nccnc21	210 to 212 °C
O=C(O)/C=C/c1cn(Cc2ccc3c(c2)Nc2nccnc2S3)cn1	275 to 276 °C
CC(CCC1CCN(Cc2cnc3c(c2)Nc2nccnc2S3)CC1)C(=O)O (stereo not shown)	115 to 118 °C
CONC(Cc1ccc2c(c1)Nc1nccnc1S2)=NC#N	172 to 174 °C
O=S(=O)(NC1CCN(Cc2ccc3c(c2)Nc2nccnc2S3)CC1)N1CCCCC1	56 to 57 °C
CC(=O)c1ncnc2ncn(Cc3ccc4c(c3)Nc3nccnc3S4)c12	266 to 268 °C
O=C(CCCC1CCN(Cc2ccc3c(c2)Nc2nccnc2S3)CC1)Nc1nnn[nH]1	190 to 191 °C
CC(CCC1CCN(C(=O)NCc2ccc3c(c2)Nc2nccnc2S3)CC1)C(=O)O (stereo not shown)	94 to 98 °C
FC(F)(F)c1nccn1Cc1ccc2c(c1)Nc1nccnc1S2	231 to 233 °C
CN1c2ccc(C(O)c3nnc[nH]3)cc2Nc2nccnc21 (stereo not shown)	> 275 °C
CS(=O)(=O)NCC1CCN(Cc2ccc3c(c2)Nc2nccnc2S3)CC1	218 to 221 °C
CC(C)(O)c1ncnc2ncn(Cc3ccc4c(c3)Nc3nccnc3S4)c12	268 to 271 °C
CCc1ccc(NCc2ccc3c(c2)Nc2nccnc2S3)cn1	202 to 204 °C
c1ccc(CN2CCN(c3ncnc4c3ncn4Cc3ccc4c(c3)Nc3nccnc3S4)CC2)cc1	213 to 214 °C
CCCCC1(CC(=O)O)CC2(CCN(Cc3ccc4c(c3)Nc3nccnc3S4)CC2)C1	133 to 135 °C
CC(C)(C)OC(=O)CN1c2ccccc2Nc2nccnc21	199 to 201 °C

Structure (SMILES)	melting point
O=c1ccn(Cc2ccc3c(c2)Nc2ccncc2S3)cc1	168 °C (dec.)
Cc1c(CO)ncn1Cc1ccc2c(c1)Nc1nccnc1S2	> 270 °C (dec.)
CCOC(=O)C#Cc1ccc2c(c1)Nc1nccnc1N2C	232 to 235 °C
OC(c1ccc2c(c1)Nc1nccnc1S2)c1ccccc1CN1CCCCC1 (stereo not shown)	219 to 221 °C
N=C(N)N1CCN(Cc2ccc3c(c2)Nc2nccnc2S3)CC1	265 to 271 °C (dec.)
Brc1ccc(NCc2ccc3c(c2)Nc2nccnc2S3)nc1	265 to 268 °C
O=C(O)CSCC1CCN(Cc2ccc3c(c2)Nc2nccnc2S3)CC1	110 to 113 °C
C/C(=C\CC1CCN(Cc2ccc3c(c2)Nc2nccnc2S3)CC1)C(=O)O	91 to 93 °C
O=c1ccn(Cc2ccc3c(c2)Nc2nccnc2S3)c(=O)[nH]1	269 to 271 °C
NC(=O)C1CCCCN1Cc1ccc2c(c1)Nc1nccnc1S2 (stereo not shown)	209 to 211 °C
CC(CC1C2CN(Cc3ccc4c(c3)Nc3nccnc3S4)CC1C(C)CC2C)C(=O)O (stereo not shown)	110 to 115 °C
Cc1c(C(N)=O)ncn1Cc1ccc2c(c1)Nc1nccnc1S2	> 298 °C
Cl.N=C(N)c1ccc2c(c1)Nc1nccnc1S2	> 280 °C
O=C(O)CC1CC2CN(Cc3ccc4c(c3)Nc3nccnc3S4)CC2C1 (stereo not shown) [711]	112 to 117 °C
Cc1ncn(Cc2ccc3c(c2)Nc2nccnc2S3)c1C(C)O (stereo not shown)	178 to 182 °C
CCOP(=O)(Cc1ccc2c(c1)Nc1nccnc1S2)OCC	164 to 165 °C
COC(=O)CC1C2CCCC1CN(Cc1ccc3c(c1)Nc1nccnc1S3)C2 (stereo not shown)	127 to 129 °C
O=C(O)C(F)C1CCN(Cc2ccc3c(c2)Nc2nccnc2S3)CC1 (stereo not shown)	163 °C (dec.)
CCCCC#CC(O)c1ccc2c(c1)Nc1nccnc1S2 (stereo not shown)	116 to 118 °C
CCc1cc(NCc2ccc3c(c2)Nc2nccnc2S3)ccn1	148 to 152 °C
N=C(NC1CCN(Cc2ccc3c(c2)Nc2nccnc2S3)CC1)C(=O)O	186 to 190 °C
CC1C[C@@H](C)C2CN(Cc3ccc4c(c3)Nc3nccnc3S4)CC1C21CC(CC(=O)O)C1 (stereo partly shown)	205 to 206 °C
O=C(O)c1ccc(C(O)c2nccn2Cc2ccc3c(c2)Nc2nccnc2S3)cc1 (stereo not shown)	240 to 241 °C
Cl.N=C(Cc1ccc2c(c1)Nc1nccnc1S2)Nc1ccccc1	245 to 249 °C (dec.)
NS(=O)(=O)NC1CCN(Cc2ccc3c(c2)Nc2nccnc2S3)CC1	196 to 199 °C

Structure (SMILES)	melting point
O=C(O)c1ccc(-c2cn(Cc3ccc4c(c3)Nc3nccnc3S4)cn2)cc1	264 to 266 °C
CS(=O)(=O)N=CNc1ccc(-c2cn(Cc3ccc4c(c3)Nc3nccnc3S4)cn2)cc1	159 to 162 °C
O=c1ccccn1Cc1ccc2c(c1)Nc1nccnc1S2	260 to 261 °C
O=C(O)c1ccc(NCc2ccc3c(c2)Nc2nccnc2S3)nc1	215 to 220 °C
O=C(O)C1CCN(c2ncnc3c2ncn3Cc2ccc3c(c2)Nc2nccnc2S3)CC1	238 to 240 °C
CN(C)S(=O)(=O)NC1CCN(C(=N)Cc2ccc3c(c2)Nc2nccnc2S3)CC1.Cl	215 to 218 °C
C/C(O)=C(\C#N)C(=O)Nc1ccc(-c2cn(Cc3ccc4c(c3)Nc3nccnc3S4)cn2)cc1	259 to 261 °C
O=C1CCC2(CCN(Cc3ccc4c(c3)Nc3nccnc3S4)CC2)O1	199 to 203 °C
c1ccc(CCNCc2ccc3c(c2)Nc2nccnc2S3)nc1	179 to 182 °C
CC(CCC1CCN(CCCc2ccc3c(c2)Nc2nccnc2S3)CC1)C(=O)O (stereo not shown)	235 to 238 °C
O=C(c1ccccn1)c1nccn1Cc1ccc2c(c1)Nc1nccnc1S2	191 to 193 °C
COC(=O)c1ccc(CN2c3ccccc3Nc3nccnc32)cc1	232 to 234 °C
OCCC1CCN(Cc2ccc3c(c2)Nc2nccnc2S3)CC1	148 to 152 °C
CN(Cc1ccc(S(N)(=O)=O)cc1)Cc1ccc2c(c1)Nc1nccnc1S2	181 to 184 °C
CS(=O)(=O)N1CCC(N(CC(=O)O)Cc2ccc3c(c2)Nc2nccnc2S3)CC1	185 to 189 °C
N=C(Cc1ccc2c(c1)Nc1nccnc1S2)N1CCC(O)CC1	265 to 267 °C
N#CN=C(Cc1ccc2c(c1)Nc1nccnc1S2)NCCCC(=O)O	217 to 218 °C (dec.)
O=C(O)Cc1cc2c(s1)CN(Cc1ccc3c(c1)Nc1nccnc1S3)CC2	98 to 105 °C
CN(C)/C=N/Cc1ccc2c(c1)Nc1nccnc1S2	218 to 219 °C
CC1(O)CCN(Cc2ccc3c(c2)Nc2nccnc2S3)CC1	176 to 180 °C
Cc1nc2cncnc2n1Cc1ccc2c(c1)Nc1nccnc1S2	191 to 193 °C
CS(=O)(=O)NC(=O)Cc1ccc2c(c1)Nc1nccnc1S2	236 to 238 °C
CC(O)c1ncnc2c1ncn2Cc1ccc2c(c1)Nc1nccnc1S2 (stereo not shown)	210 to 212 °C
O=C(O)CNS(=O)(=O)NC1CCN(Cc2ccc3c(c2)Nc2nccnc2S3)CC1	195 to 196 °C
N#CN=C(N)NCc1ccc2c(c1)Nc1nccnc1S2	246 to 248 °C
